Assays:
Format in all cases: biochemical
[1] = molecular target: T1, human recombinant ROCK II (Homo sapiens, UniProt O75116); experiment: Determination of Rho kinase inhibition (ROCK II, Caliper peptide phosphorylation assay); settings: respective form (salt or free base) as obtained in the examples, 60 min at 32° C.
T1 construct: recombinant human ROCK-II residues 11-552; His6 (N); purchased Millipore GmbH, Schwalbach, Germany
Description: To measure Rho-kinase inhibition, IC50 values were determined according to the following protocol:
Active human recombinant ROCK II (N-terminal His6-tagged recombinant human ROCK-II residues 11-552) was purchased from Millipore GmbH, Schwalbach, Germany. The peptide substrate, Fluorescein-[…]-COOH, was obtained from JPT Peptide Technologies, Berlin, Germany. Adenosine-5′-triphosphate (ATP), bovine serum albumine (BSA), dimethylsulphoxide (DMSO), 4-(2-hydroxyethyl)piperazine-1-ethanesulfonic acid (Hepes), Brij-35, dithiothreitol (DTT) and Pluronic F-68 were purchased from Sigma-Aldrich, Munich, Germany. Tris(hydroxymethyl)-aminomethane (Tris), magnesium chloride, NaOH, 1M HCl and EDTA were obtained from Merck Biosciences, Darmstadt, Germany. “Complete” protease inhibitor was from Roche Diagnostics, Mannheim, Germany. Test compounds were diluted to the appropriate concentrations in buffer 1 (25 mM Tris-HCl, pH 7.4, 5 mM MgCl2, 2 mM DTT, 0.02% (w/v) BSA, 0.01% Pluronic F-68 and 3% DMSO). The ROCK II enzyme was diluted to a concentration of 100 ng/mL in buffer 2 (25 mM Tris-HCl, pH 7.4, 5 mM MgCl2, 2 mM DTT and 0.02% (w/v) BSA). The peptide substrate and ATP were diluted to concentrations of 3 μM and 120 μM, respectively, in the buffer 2. Two μl of the compound solution were mixed with 2 μl of the diluted enzyme in a 384-well small volume microtiter plate (Greiner, Bio-One, Frickenhausen, Germany), and the kinase reaction was initiated by addition of 2 μl of the solution containing peptide substrate and ATP. After 60 min incubation at 32° C., the reaction was stopped by addition of 20 μl of a solution containing 100 mM Hepes-NaOH, pH 7.4, 0.015% (v/v) Brij-35, 45 mM EDTA and 0.227% chip coating reagent 1 (Caliper Lifescience Inc, Hopkinton, Mass.). Phosphorylation of the substrate peptide was then detected on a Caliper 3000 instrument essentially as described by Pommereau et al (J. Biomol. Screening 2004, 9(5), 409-416). Separation conditions were as follows: Pressure −1.3 psi, upstream voltage −1562 V, downstream voltage −500 V, sample sip time 200 ms. Positive controls (buffer 1 instead of compound) and negative controls (buffer 1 instead of compound and buffer 2 instead of ROCK II) were run in parallel on each plate.
The following products/compounds were tested in said assay by using the respective form (salt or free base) obtained as in the examples described above and the following activities were measured

recombinant human PKA = molecular target: T2, recombinant human PKA (Homo sapiens, UniProt P17612); experiment: Determination of Protein Kinase A inhibition (selectivity); settings: from IC50 values
T2 construct: recombinant human PKA (residues 1-351, N-terminal His-tag); His-tag (N); purchased Invitrogen, Karlsruhe, Germany
Description: (§1) 2) Determination of Protein Kinase a and Protein Kinase G Inhibition
(§2) To measure PKA and PKG1-beta inhibition, IC50 values were determined according to the following protocol:
(§3) Active recombinant human PKG1-beta (full-length, with N-terminal His-tag) was purchased from Millipore GmbH, Schwalbach, Germany. Active recombinant human PKA (residues 1-351, N-terminal His-tag) was obtained from Invitrogen, Karlsruhe, Germany. The peptide substrate, Fluorescein-[…]-COOH, was obtained from JPT Peptide Technologies, Berlin, Germany. Adenosine-5′-triphosphate (ATP), bovine serum albumine (BSA), dimethylsulphoxide (DMSO), 4-(2-Hydroxyethyl)piperazine-1-ethanesulfonic acid (Hepes), Brij-35, dithiothreitol (DTT) and Pluronic F-68 were purchased from Sigma-Aldrich, Munich, Germany. Tris(hydroxymethyl)-aminomethane (Tris), magnesium chloride, NaOH, 1M HCl and EDTA were obtained from Merck Biosciences, Darmstadt, Germany. “Complete” protease inhibitor was from Roche Diagnostics, Mannheim, Germany. Test compounds were diluted to the appropriate concentrations in buffer 1 (25 mM Tris-HCl, pH 7.4, 5 mM MgCl2, 2 mM DTT, 0.02% (w/v) BSA, 0.01% Pluronic F-68 and 3% DMSO). PKG1-beta and PKA were diluted to concentrations of 150 ng/ml and 30 ng/ml, respectively, in buffer 2. The peptide substrate and ATP were diluted to concentrations of 3 μM and 120 μM, respectively, in the buffer 2. Two μl of the compound solution were mixed with 2 μl of the diluted enzyme in a 384-well small volume microtiter plate (Greiner, Bio-One, Frickenhausen, Germany), and the kinase reaction was initiated by addition of 2 μl of the solution containing peptide substrate and ATP. After 60 min incubation at 32° C., the reaction was stopped by addition of 20 μl of a solution containing 100 mM Hepes-NaOH, pH 7.4, 0.015% (v/v) Brij-35, 45 mM EDTA and 0.227% chip coating reagent 1 (Caliper Lifescience Inc, Hopkinton, Mass.). Phosphorylation of the substrate peptide was then detected on a Caliper 3000 instrument essentially as described by Pommereau et al (J. Biomol. Screening 9(5), 409-416, 2004). Separation conditions were as follows: Pressure −1.3 psi, upstream voltage −1562 V, downstream voltage −500 V, sample sip time 200 ms, Positive controls (buffer 1 instead of compound) and negative controls (buffer 1 instead of compound and buffer 2 instead of kinase solution) were run in parallel on each plate. The following products/compounds were tested in said assay by using the respective form (salt or free base) obtained as in the examples described above and the following activities were measured.

[2] = molecular target: T3, recombinant human PKG1-beta (Homo sapiens, UniProt Q13976); experiment: Determination of Protein Kinase G inhibition (selectivity); settings: from IC50 values
T3 construct: PKG1-beta (full-length, with N-terminal His-tag); His-tag (N); purchased Millipore GmbH, Schwalbach, Germany
T3 sequence (Q13976 1-686 isoform Q13976-2): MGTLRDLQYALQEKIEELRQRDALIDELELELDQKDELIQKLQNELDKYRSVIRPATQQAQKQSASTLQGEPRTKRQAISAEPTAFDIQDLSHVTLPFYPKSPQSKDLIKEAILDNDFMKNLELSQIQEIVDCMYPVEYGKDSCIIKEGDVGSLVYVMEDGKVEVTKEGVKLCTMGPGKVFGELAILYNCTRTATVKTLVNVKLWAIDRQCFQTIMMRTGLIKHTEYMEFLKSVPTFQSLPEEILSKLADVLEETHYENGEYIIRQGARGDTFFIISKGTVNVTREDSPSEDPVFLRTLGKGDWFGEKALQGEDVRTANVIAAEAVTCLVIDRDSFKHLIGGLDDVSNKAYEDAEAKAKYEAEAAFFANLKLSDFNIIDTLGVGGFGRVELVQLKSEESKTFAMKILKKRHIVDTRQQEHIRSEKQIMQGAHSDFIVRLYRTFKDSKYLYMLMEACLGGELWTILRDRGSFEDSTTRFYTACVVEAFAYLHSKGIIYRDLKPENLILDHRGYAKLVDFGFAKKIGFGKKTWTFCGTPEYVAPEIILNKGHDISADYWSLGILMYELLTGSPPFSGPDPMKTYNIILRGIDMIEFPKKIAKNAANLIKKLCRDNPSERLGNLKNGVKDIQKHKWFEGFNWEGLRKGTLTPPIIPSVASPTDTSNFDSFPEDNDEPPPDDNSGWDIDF
Description: as §1, §2, §3

T1 sequence (O75116 11-552): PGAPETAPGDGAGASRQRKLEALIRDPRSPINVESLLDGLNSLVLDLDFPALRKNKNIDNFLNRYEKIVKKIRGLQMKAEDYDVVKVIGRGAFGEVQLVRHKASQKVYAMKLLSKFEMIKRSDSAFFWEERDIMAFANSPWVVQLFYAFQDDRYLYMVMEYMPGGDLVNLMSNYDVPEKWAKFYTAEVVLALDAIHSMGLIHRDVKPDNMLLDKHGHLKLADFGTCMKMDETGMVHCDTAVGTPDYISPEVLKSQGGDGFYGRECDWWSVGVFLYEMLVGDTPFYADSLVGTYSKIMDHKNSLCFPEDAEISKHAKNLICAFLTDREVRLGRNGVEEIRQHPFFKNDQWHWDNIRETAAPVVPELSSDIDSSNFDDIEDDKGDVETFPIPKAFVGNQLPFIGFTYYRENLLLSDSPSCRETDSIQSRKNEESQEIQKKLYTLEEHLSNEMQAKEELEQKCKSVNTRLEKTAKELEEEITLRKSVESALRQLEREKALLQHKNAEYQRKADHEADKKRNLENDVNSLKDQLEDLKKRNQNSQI

SMILES | IC50 [1] [nM] | Selectivity against PKA (recombinant human PKA) [fold] | Selectivity against PKG [2] [fold]
CCC(N)[C@]1(OC)CC[C@H](Oc2cc3cc[nH]c(=O)c3cc2Cl)CC1 (stereo partly drawn) [Example 58, cis-6-[4-(1-Amino-propyl)-4-methoxy-cyclohexyloxy]-7-chloro-2H-isoquinolin-1-one] | 10 to 100 | >300 | >300
CCC(N)[C@]1(C2CCOCC2)CC[C@H](Oc2cc3cc[nH]c(=O)c3cc2Cl)CC1 (mixture of isomers) [Example 1, cis-6-[4-(1-Aminopropyl)-4-(tetrahydropyran-4-yl)-cyclohexyloxy]-7-chloro-2H-isoquinolin-1-one] | ≤ 10 | >1000 | >300
CCC(N)C1(CC(C)C)CCC(Oc2cc3cc[nH]c(=O)c3cc2Cl)CC1 (single isomer, unassigned) [Example 28, 6-[4-(1-Amino-propyl)-4-isobutyl-cyclohexyloxy]-7-chloro-2H-isoquinolin-1-one] | 100 to 1000 | >10 | >10
CCC(N)C1(C2CCC2)CCC(Oc2cc3cc[nH]c(=O)c3cc2Cl)CC1 (single isomer, unassigned) [Example 23, 6-[4-(1-Amino-propyl)-4-cyclobutyl-cyclohexyloxy]-7-chloro-2H-isoquinolin-1-one] | 100 to 1000 | >10 | >10
NC(C1CC1)[C@]1(C2CC2)CC[C@H](Oc2cc3cc[nH]c(=O)c3cc2Cl)CC1 (stereo partly drawn) [Example 75, cis-6-[4-(Amino-cyclopropyl-methyl)-4-cyclopropyl-cyclohexyloxy]-7-chloro-2H-isoquinolin-1-one] | ≤ 10 | >1000 | >1000
NC(C1CC1)[C@]1(CCCC(F)(F)F)CC[C@H](Oc2cc3cc[nH]c(=O)c3cc2Cl)CC1 (stereo partly drawn) [Example 73, cis-6-[4-(Amino-cyclopropyl-methyl)-4-(4,4,4-trifluoro-butyl)-cyclohexyloxy]-7-chloro-2H-isoquinolin-1-one] | ≤ 10 | >1000 | >300
CCC(N)C1(Cc2ccccc2)CCC(Oc2cc3cc[nH]c(=O)c3cc2Cl)CC1 (single isomer, unassigned) [Example 31, 6-[4-(1-Amino-propyl)-4-benzyl-cyclohexyloxy]-7-chloro-2H-isoquinolin-1-one] | – | >10 | >100
CCC(N)C1(C(C)C)CCC(Oc2cc3cc[nH]c(=O)c3cc2Cl)CC1 (single isomer, unassigned) [Example 9, 6-[4-(1-Amino-propyl)-4-isopropyl-cyclohexyloxy]-7-chloro-2H-isoquinolin-1-one] | 10 to 100 | >10 | >10
CC[C@]1(C(N)C2CC2)CC[C@@H](Oc2cc3cc[nH]c(=O)c3cc2Cl)CC1 (stereo partly drawn) [Example 70, cis-6-[4-(Amino-cyclopropyl-methyl)-4-ethyl-cyclohexyloxy]-7-chloro-2H-isoquinolin-1-one] | ≤ 10 | >1000 | >1000
CCC(N)C1(C2CCC2)CCC(Oc2cc3cc[nH]c(=O)c3cc2Cl)CC1 (single isomer, unassigned) [Example 22, 6-[4-(1-Amino-propyl)-4-cyclobutyl-cyclohexyloxy]-7-chloro-2H-isoquinolin-1-one] | 10 to 100 | >300 | >100
CCC(N)[C@]1(OC)CC[C@@H](Oc2cc3cc[nH]c(=O)c3cc2Cl)CC1 (stereo partly drawn) [Example 59, trans-6-[4-(1-Amino-propyl)-4-methoxy-cyclohexyloxy]-7-chloro-2H-isoquinolin-1-one] | 10 to 100 | >100 | >100
C[C@]1(C(N)C2CC2)CC[C@@H](Oc2cc3cc[nH]c(=O)c3cc2Cl)CC1 (stereo partly drawn) [Example 69, cis-6-[4-(Amino-cyclopropyl-methyl)-4-methyl-cyclohexyloxy]-7-chloro-2H-isoquinolin-1-one] | ≤ 10 | >1000 | >300
CC(N)C1(C2CCC2)CCC(Oc2cc3cc[nH]c(=O)c3cc2Cl)CC1 (single isomer, unassigned) [Example 21, 6-[4-(1-Amino-ethyl)-4-cyclobutyl-cyclohexyloxy]-7-chloro-2H-isoquinolin-1-one] | 10 to 100 | >300 | >100

From patent US8399482B2, “6-substituted isoquinolines and isoquinolinones” (Sanofi, priority 2008, dated 2013)
